Biological target: 1-phosphatidylinositol 3-phosphate 5-kinase (Homo sapiens, UniProt Q9Y2I7)
Assay: ADP-GLO Kinase Assay
Description: Briefly, 4 compound solution and 4 ATP solution are prepared with assay buffer (50 mM MOPS, 1 mM DTT, pH7.2). 4 Substrate solution and 4 kinase/Metal solution are prepared with MOPS based buffer containing individual kinase specific additives. Then, […], 5 μL of 4 Substrate solution, 5 μL of 4 ATP solution, and 5 μL of 4 kinase/Metal solution are mixed and incubated in a well of polystyrene 384 well black microplate for 1 hour at room temperature. Next, 20 μL of ADP-Glo Reagent (Promega) is added to the well,and incubated for over 40 minutes. 40 μL of Kinase Detection Reagent (Promega) is added to the well, and incubated for over 40 minutes. The kinase reaction is evaluated by the endpoint luminescence of the well. For measurement of PIKFYVE activity, the substrate is PI3P at 10,000 nM concentration, using AG-182 as a positive control. The metal used is magnesium at 5 mM concentration.

1-phosphatidylinositol 3-phosphate 5-kinase, sequence (Q9Y2I7 whole entry): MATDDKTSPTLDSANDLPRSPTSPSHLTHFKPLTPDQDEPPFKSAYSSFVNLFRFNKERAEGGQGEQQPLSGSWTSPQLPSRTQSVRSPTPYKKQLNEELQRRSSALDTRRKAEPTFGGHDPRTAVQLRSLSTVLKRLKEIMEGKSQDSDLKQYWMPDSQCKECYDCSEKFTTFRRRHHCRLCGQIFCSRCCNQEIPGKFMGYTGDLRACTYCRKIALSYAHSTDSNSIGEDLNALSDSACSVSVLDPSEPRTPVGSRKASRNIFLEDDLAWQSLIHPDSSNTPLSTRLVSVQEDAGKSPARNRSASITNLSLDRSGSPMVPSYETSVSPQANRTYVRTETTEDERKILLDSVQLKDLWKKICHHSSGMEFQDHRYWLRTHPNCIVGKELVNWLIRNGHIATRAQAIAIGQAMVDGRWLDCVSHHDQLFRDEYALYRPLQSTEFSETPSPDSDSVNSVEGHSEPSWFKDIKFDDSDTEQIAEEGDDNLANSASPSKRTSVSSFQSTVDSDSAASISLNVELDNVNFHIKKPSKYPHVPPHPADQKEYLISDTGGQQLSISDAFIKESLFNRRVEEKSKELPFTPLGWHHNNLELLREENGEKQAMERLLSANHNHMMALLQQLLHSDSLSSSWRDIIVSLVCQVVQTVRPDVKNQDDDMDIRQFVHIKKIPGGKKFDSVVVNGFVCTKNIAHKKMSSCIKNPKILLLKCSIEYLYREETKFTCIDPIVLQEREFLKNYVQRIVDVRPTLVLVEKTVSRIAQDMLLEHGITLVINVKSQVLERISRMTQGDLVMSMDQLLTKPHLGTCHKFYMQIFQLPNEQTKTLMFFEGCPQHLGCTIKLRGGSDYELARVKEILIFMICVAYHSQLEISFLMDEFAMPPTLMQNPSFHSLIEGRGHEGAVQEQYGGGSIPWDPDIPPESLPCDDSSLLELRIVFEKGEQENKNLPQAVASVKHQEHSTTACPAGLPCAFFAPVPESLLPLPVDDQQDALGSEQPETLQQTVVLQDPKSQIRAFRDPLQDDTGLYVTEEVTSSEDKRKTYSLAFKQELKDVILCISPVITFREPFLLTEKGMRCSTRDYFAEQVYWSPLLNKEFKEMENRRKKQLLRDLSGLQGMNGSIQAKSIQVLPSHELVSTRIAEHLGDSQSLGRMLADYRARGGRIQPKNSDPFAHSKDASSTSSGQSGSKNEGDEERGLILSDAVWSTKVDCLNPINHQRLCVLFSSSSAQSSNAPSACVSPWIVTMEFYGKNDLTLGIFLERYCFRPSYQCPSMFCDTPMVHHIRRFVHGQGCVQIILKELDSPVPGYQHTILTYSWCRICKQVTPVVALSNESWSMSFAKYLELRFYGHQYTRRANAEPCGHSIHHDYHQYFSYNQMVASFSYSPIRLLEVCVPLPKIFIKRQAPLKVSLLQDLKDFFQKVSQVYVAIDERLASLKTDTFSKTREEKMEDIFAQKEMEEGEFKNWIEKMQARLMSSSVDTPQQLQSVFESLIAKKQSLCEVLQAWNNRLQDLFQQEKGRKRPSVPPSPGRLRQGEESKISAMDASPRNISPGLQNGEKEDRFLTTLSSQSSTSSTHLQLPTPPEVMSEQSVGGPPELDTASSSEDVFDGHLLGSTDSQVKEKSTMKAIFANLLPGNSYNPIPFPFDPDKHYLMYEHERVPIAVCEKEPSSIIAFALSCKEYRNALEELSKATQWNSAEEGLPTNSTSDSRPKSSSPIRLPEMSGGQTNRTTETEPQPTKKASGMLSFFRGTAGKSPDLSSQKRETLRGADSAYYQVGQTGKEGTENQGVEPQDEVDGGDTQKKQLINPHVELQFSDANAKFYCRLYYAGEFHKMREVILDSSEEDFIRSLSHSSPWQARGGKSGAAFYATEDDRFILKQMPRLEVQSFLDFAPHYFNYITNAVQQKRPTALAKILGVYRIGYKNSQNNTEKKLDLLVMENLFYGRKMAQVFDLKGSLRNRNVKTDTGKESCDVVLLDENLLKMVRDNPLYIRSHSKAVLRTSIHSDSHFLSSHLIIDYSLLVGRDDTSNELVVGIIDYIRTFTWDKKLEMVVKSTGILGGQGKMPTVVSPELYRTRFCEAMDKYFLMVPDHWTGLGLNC

Brc1cccc(-c2ccn(-c3cc(N4CCOCC4)n4nc(-c5ccncc5)cc4n3)n2)c1 [US20240018151, Example 3]
IC50: < 50 nM
